Laboratory results from patent publication US20120029187A1, “HALOALKYLSULFONANILIDE DERIVATIVE” (Nissan Chemical Industries, Ltd., priority 2009, published 2012).

Key:
Format in all cases: in vivo
redroot pigweed [1] = assay: Test Example 4: herbicidal effect in foliage treatment; conditions: dose 3.2 g/a, three weeks after application
How it was run: (§1)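 Seeds were spot-sown in boxes of sterilized diluvial soil and raised in a greenhouse (25 to 30° C) for 14 days before a single foliar application. Compounds were applied as emulsifiable concentrates diluted with water, at predetermined doses in g/a. Injury was graded three weeks post-spray.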

Italian ryegrass [2] = assay: as above; conditions: dose 3.2 g/a, three weeks after application
How it was run: as §1

large crabgrass [3] = assay: as above; conditions: dose 3.2 g/a, three weeks after application
How it was run: as §1

posumbu knotweed = assay: as above; conditions: dose 3.2 g/a, three weeks after application
How it was run: as §1

common lambsquater [4] = assay: as above; conditions: dose 3.2 g/a, three weeks after application
How it was run: as §1

wild oat [5] = assay: as above; conditions: dose 3.2 g/a, three weeks after application
How it was run: as §1

giant foxtail [6] = assay: as above; conditions: dose 3.2 g/a, three weeks after application
How it was run: as §1

water foxtail [7] = assay: as above; conditions: dose 3.2 g/a, three weeks after application
How it was run: as §1

barnyardgrass [8] = assay: as above; conditions: dose 3.2 g/a, three weeks after application
How it was run: as §1

velvetleaf [9] = assay: as above; conditions: dose 3.2 g/a, three weeks after application
How it was run: as §1

beadstraw = assay: as above; conditions: dose 3.2 g/a, three weeks after application
How it was run: as §1

common ragweed [10] = assay: as above; conditions: dose 3.2 g/a, three weeks after application
How it was run: as §1

common chickweed [11] = assay: as above; conditions: dose 3.2 g/a, three weeks after application
How it was run: as §1

transplanted rice = assay: Test Example 1: preemergence treatment under submerged conditions, effect on crop; conditions: dose 2.52 g/a
How it was run: (§2)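 Score 0–5 by mortality (5: ≥90%; 0: <5%), read 3 weeks post-application. Paddy-type cups: alluvial soil under 4 cm water, weeds seeded plus transplanted 2.5-leaf rice; diluted EC dosed onto water surface same day as sowing, g/a basis; greenhouse 25 to 30° C.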

bulrush [12] = assay: Test Example 2: herbicidal effects during the vegetation period under submerged conditions; conditions: treatment during the vegetation period under submerged conditions; dose 2.52 g/a
How it was run: (§3)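 Barnyardgrass, bulrush and ducksalad were co-sown in alluvial soil flooded to 4 cm and grown in a greenhouse at 25 to 30° C. At the 1- or 2-leaf stage, water-diluted emulsifiable concentrates went onto the water surface at set doses (g/a). Herbicidal effect was scored three weeks later on a graded scale.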

ducksalad [13] = assay: as above; conditions: treatment during the vegetation period under submerged conditions; dose 2.52 g/a
How it was run: as §3

barnyardgrass [14] = assay: as above; conditions: treatment during the vegetation period under submerged conditions; dose 2.52 g/a
How it was run: as §3

redroot pigweed [15] = assay: Test Example 3: herbicidal effects in soil treatment; conditions: dose 3.2 g/a
How it was run: (§4)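 Seeds were sown in sterilized diluvial soil and covered with about 1.5 cm of soil. Compounds, formulated as emulsifiable concentrates and diluted with water, were sprayed evenly over the soil surface at set doses in g/a. Herbicidal effect was scored on a rating scale three weeks later.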

Italian ryegrass [16] = assay: as above; conditions: dose 3.2 g/a
How it was run: as §4

large crabgrass [17] = assay: as above; conditions: dose 3.2 g/a
How it was run: as §4

common lambsquater [18] = assay: as above; conditions: dose 3.2 g/a
How it was run: as §4

wild oat [19] = assay: as above; conditions: dose 3.2 g/a
How it was run: as §4

giant foxtail [20] = assay: as above; conditions: dose 3.2 g/a
How it was run: as §4

water foxtail [21] = assay: as above; conditions: dose 3.2 g/a
How it was run: as §4

barnyardgrass [22] = assay: as above; conditions: dose 3.2 g/a
How it was run: as §4

velvetleaf [23] = assay: as above; conditions: dose 3.2 g/a
How it was run: as §4

common ragweed [24] = assay: as above; conditions: dose 3.2 g/a
How it was run: as §4

common chickweed [25] = assay: as above; conditions: dose 3.2 g/a
How it was run: as §4

bulrush [26] = assay: Test Example 1: herbicidal effects in preemergence treatment under submerged conditions; conditions: dose 2.52 g/a
How it was run: as §2

ducksalad [27] = assay: as above; conditions: dose 2.52 g/a
How it was run: as §2

barnyardgrass [28] = assay: as above; conditions: dose 2.52 g/a
How it was run: as §2

Compound | K: redroot pigweed, herbicidal effect (redroot pigweed [1]) | H: Italian ryegrass, herbicidal effect (Italian ryegrass [2]) | D: large crabgrass, herbicidal effect (large crabgrass [3]) | M: posumbu knotweed, herbicidal effect (posumbu knotweed) | L: common lambsquater, herbicidal effect (common lambsquater [4]) | F: wild oat, herbicidal effect (wild oat [5]) | E: giant foxtail, herbicidal effect (giant foxtail [6]) | G: water foxtail, herbicidal effect (water foxtail [7]) | A: barnyardgrass, herbicidal effect (barnyardgrass [8]) | I: velvetleaf, herbicidal effect (velvetleaf [9]) | O: beadstraw, herbicidal effect (beadstraw) | J: common ragweed, herbicidal effect (common ragweed [10]) | N: common chickweed, herbicidal effect (common chickweed [11]) | a: transplanted rice, effect on crop (evaluation scale 0-5) (transplanted rice) | B: bulrush, herbicidal effect (evaluation scale 0-5) (bulrush [12]) | C: ducksalad, herbicidal effect (evaluation scale 0-5) (ducksalad [13]) | A: barnyardgrass, herbicidal effect (evaluation scale 0-5) (barnyardgrass [14]) | K: redroot pigweed, herbicidal effect (evaluation scale 0-5) (redroot pigweed [15]) | H: Italian ryegrass, herbicidal effect (evaluation scale 0-5) (Italian ryegrass [16]) | D: large crabgrass, herbicidal effect (evaluation scale 0-5) (large crabgrass [17]) | also measured
CC1(C)CN(Cc2ccccc2NS(=O)(=O)C(F)(F)F)C(=O)CO1 [Compound I-15] | 3 (mortality of at least 40% and less than 70%) | 4 (mortality of at least 70% and less than 90%) | 4 (mortality of at least 70% and less than 90%) | 4 (mortality of at least 70% and less than 90%) | 3 (mortality of at least 40% and less than 70%) | 1 (mortality of at least 5% and less than 20%) | 4 (mortality of at least 70% and less than 90%) | 5 (mortality of 90% or above (nearly complete death)) | 5 (mortality of 90% or above (nearly complete death)) | 5 (mortality of 90% or above (nearly complete death)) | 4 (mortality of at least 70% and less than 90%) | 4 (mortality of at least 70% and less than 90%) | 4 (mortality of at least 70% and less than 90%) | 1 (mortality of at least 5% and less than 20%) | 5 (mortality of 90% or above (nearly complete death)) | 5 (mortality of 90% or above (nearly complete death)) | 5 (mortality of 90% or above (nearly complete death)) | 5 (mortality of 90% or above (nearly complete death)) | 5 (mortality of 90% or above (nearly complete death)) | 5 (mortality of 90% or above (nearly complete death)) | L: common lambsquater, herbicidal effect (evaluation scale 0-5) (common lambsquater [18]): 4 (mortality of at least 70% and less than 90%); F: wild oat, herbicidal effect (evaluation scale 0-5) (wild oat [19]): 3 (mortality of at least 40% and less than 70%); E: giant foxtail, herbicidal effect (evaluation scale 0-5) (giant foxtail [20]): 3 (mortality of at least 40% and less than 70%); G: water foxtail, herbicidal effect (evaluation scale 0-5) (water foxtail [21]): 5 (mortality of 90% or above (nearly complete death)); A: barnyardgrass, herbicidal effect (evaluation scale 0-5) (barnyardgrass [22]): 5 (mortality of 90% or above (nearly complete death)); I: velvetleaf, herbicidal effect (evaluation scale 0-5) (velvetleaf [23]): 5 (mortality of 90% or above (nearly complete death)); J: common ragweed, herbicidal effect (evaluation scale 0-5) (common ragweed [24]): 5 (mortality of 90% or above (nearly complete death)); N: common chickweed, herbicidal effect (evaluation scale 0-5) (common chickweed [25]): 4 (mortality of at least 70% and less than 90%); B: bulrush, herbicidal effect (evaluation scale 0-5) (bulrush [26]): 5 (mortality of 90% or above (nearly complete death)); C: ducksalad, herbicidal effect (evaluation scale 0-5) (ducksalad [27]): 5 (mortality of 90% or above (nearly complete death)); A: barnyardgrass, herbicidal effect (evaluation scale 0-5) (barnyardgrass [28]): 5 (mortality of 90% or above (nearly complete death))
CC(C)COC(=O)N(c1ccccc1CN1COC(c2ccccc2)CC1=O)S(=O)(=O)C(F)(F)F (centres unmarked) [II-13] | 0 (mortality of less than 5% (almost ineffective)) | 0 (mortality of less than 5% (almost ineffective)) | 2 (mortality of at least 20% and less than 40%) | 1 (mortality of at least 5% and less than 20%) | 0 (mortality of less than 5% (almost ineffective)) | 0 (mortality of less than 5% (almost ineffective)) | 0 (mortality of less than 5% (almost ineffective)) | 0 (mortality of less than 5% (almost ineffective)) | 2 (mortality of at least 20% and less than 40%) | 0 (mortality of less than 5% (almost ineffective)) | 4 (mortality of at least 70% and less than 90%) | 4 (mortality of at least 70% and less than 90%) | 3 (mortality of at least 40% and less than 70%) | 0 (mortality of less than 5% (almost ineffective)) | 5 (mortality of 90% or above (nearly complete death)) | 5 (mortality of 90% or above (nearly complete death)) | 5 (mortality of 90% or above (nearly complete death)) | 0 (mortality of less than 5% (almost ineffective)) | 0 (mortality of less than 5% (almost ineffective)) | 2 (mortality of at least 20% and less than 40%) | L: common lambsquater, herbicidal effect (evaluation scale 0-5) (common lambsquater [18]): 0 (mortality of less than 5% (almost ineffective)); F: wild oat, herbicidal effect (evaluation scale 0-5) (wild oat [19]): 0 (mortality of less than 5% (almost ineffective)); E: giant foxtail, herbicidal effect (evaluation scale 0-5) (giant foxtail [20]): 4 (mortality of at least 70% and less than 90%); G: water foxtail, herbicidal effect (evaluation scale 0-5) (water foxtail [21]): 0 (mortality of less than 5% (almost ineffective)); A: barnyardgrass, herbicidal effect (evaluation scale 0-5) (barnyardgrass [22]): 3 (mortality of at least 40% and less than 70%); I: velvetleaf, herbicidal effect (evaluation scale 0-5) (velvetleaf [23]): 0 (mortality of less than 5% (almost ineffective)); J: common ragweed, herbicidal effect (evaluation scale 0-5) (common ragweed [24]): 0 (mortality of less than 5% (almost ineffective)); N: common chickweed, herbicidal effect (evaluation scale 0-5) (common chickweed [25]): 0 (mortality of less than 5% (almost ineffective)); B: bulrush, herbicidal effect (evaluation scale 0-5) (bulrush [26]): 5 (mortality of 90% or above (nearly complete death)); C: ducksalad, herbicidal effect (evaluation scale 0-5) (ducksalad [27]): 5 (mortality of 90% or above (nearly complete death)); A: barnyardgrass, herbicidal effect (evaluation scale 0-5) (barnyardgrass [28]): 5 (mortality of 90% or above (nearly complete death))
